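Values below derive from 48-hour exposures of cells grown in 96-well plates, with endpoints linearly interpolated between the two concentrations bracketing the appropriate inhibition level. Here, GI50 denotes the concentration required for 50% inhibition of growth.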 The source made the active and inactive calls. Cut-off read from the data, not from the text of the source: active = GI50 up to about 1.1 µM and inactive = higher.
Experiments:
Test in all cases: inhibition of tumour cell growth, NCI panel, 48 h
[1] = tested on: DU-145
[2] = tested on: NCI-H226
[3] = tested on: SR
[4] = tested on: SN12C
[5] = tested on: Hs-578T
[6] = tested on: XF498
[7] = tested on: EKVX
[8] = tested on: KM-20L2
[9] = tested on: HT-29
[10] = tested on: LOX IMVI
[11] = tested on: HOP-18
[12] = tested on: SK-MEL-2
[13] = tested on: RXF 393
[14] = tested on: OVCAR-8
[15] = tested on: SNB-19
[16] = tested on: LXFL 529
[17] = tested on: SF-539
[18] = tested on: SNB-78
[19] = tested on: SF-268
[20] = tested on: Malme-3M
[21] = tested on: SK-MEL-28
[22] = tested on: SK-MEL-5
[23] = tested on: SK-OV-3
[24] = tested on: T47D
[25] = tested on: OVCAR-3
[26] = tested on: UO-31
[27] = tested on: CCRF-CEM
[28] = tested on: UACC-62
[29] = tested on: HOP-92
[30] = tested on: HL-60
[31] = tested on: BT-549
[32] = tested on: COLO 205
[33] = tested on: OVCAR-5
[34] = tested on: IGROV-1
[35] = tested on: SNB-75
[36] = tested on: HCT-15
[37] = tested on: CAKI-1
[38] = tested on: MCF7
[39] = tested on: MOLT-4
[40] = tested on: UACC-257
[41] = tested on: U-251
[42] = tested on: HCT-116
[43] = tested on: A549
[44] = tested on: 786-0
[45] = tested on: MDA-MB-435
[46] = tested on: TK-10
[47] = tested on: NCI/ADR-RES
[48] = tested on: NCI-H522
[49] = tested on: ACHN
[50] = tested on: A498
[51] = tested on: HCC 2998
[52] = tested on: SW-620
[53] = tested on: M19-MEL
[54] = tested on: K562
[55] = tested on: MDA-N
[56] = tested on: PC-3
[57] = tested on: RPMI-8226
[58] = tested on: KM12
[59] = tested on: DMS-273
[60] = tested on: M14
[61] = tested on: HOP-62
[62] = tested on: NCI-H23
[63] = tested on: NCI-H460
[64] = tested on: MDA-MB-231
[65] = tested on: SF-295
[66] = tested on: DLD-1
[67] = tested on: OVCAR-4
[68] = tested on: DMS-114

With `CC1=CC(=O)c2cccc(O)c2C1=O` the GI50 [1] was 8.05 µM (inactive), the GI50 [2] was 7.28 µM (inactive) and the GI50 [3] was 1.8 µM (inactive). The GI50 [4] was 2.32 µM (inactive), the GI50 [5] was 3.07 µM (inactive) and the GI50 [6] was 1.79 µM (inactive). The GI50 [7] was 4.29 µM (inactive), the GI50 [8] was 20.5 µM (inactive) and the GI50 [9] was 4.27 µM (inactive). For the same compound, the GI50 [10] was 2.52 µM (inactive), the GI50 [11] was 1.7 µM (inactive) and the GI50 [12] was 2.09 µM (inactive). The GI50 [13] was 1.88 µM (inactive), the GI50 [14] was 2.56 µM (inactive) and the GI50 [15] was 8.07 µM (inactive). The GI50 [16] was 1.67 µM (inactive), the GI50 [17] was 5.7 µM (inactive) and the GI50 [18] was > 32.1 µM (inactive). The GI50 [19] was 6.76 µM (inactive), the GI50 [20] was 1.62 µM (inactive) and the GI50 [21] was 4.25 µM (inactive). For the same compound, the GI50 [22] was 1.79 µM (inactive), the GI50 [23] was 14.3 µM (inactive) and the GI50 [24] was 1.77 µM (inactive). The GI50 [25] was 1.53 µM (inactive), the GI50 [26] was 1.79 µM (inactive) and the GI50 [27] was 1.91 µM (inactive). For the same compound, the GI50 [28] was 1.96 µM (inactive), the GI50 [29] was 1.85 µM (inactive) and the GI50 [30] was 935 nM (active). The GI50 [31] was 1.75 µM (inactive), the GI50 [32] was 2.09 µM (inactive) and the GI50 [33] was 8.09 µM (inactive). For the same compound, the GI50 [34] was 13.2 µM (inactive), the GI50 [35] was 8.73 µM (inactive) and the GI50 [36] was 1560 nM. For the same compound, the GI50 [37] was 1.88 µM (inactive), the GI50 [38] was 1.99 µM (inactive) and the GI50 [39] was 473 nM (active). The GI50 [40] was 1.79 µM (inactive), the GI50 [41] was 16.5 µM (inactive) and the GI50 [42] was 1.91 µM (inactive). For the same compound, the GI50 [43] was 14.9 µM (inactive), the GI50 [44] was 1.7 µM (inactive) and the GI50 [45] was 1.78 µM (inactive). For the same compound, the GI50 [46] was 2.43 µM (inactive), the GI50 [47] was 1.82 µM (inactive) and the GI50 [48] was 2.25 µM (inactive). The GI50 [49] was 1.78 µM (inactive), the GI50 [50] was 18.5 µM (inactive) and the GI50 [51] was 8.57 µM (inactive). The GI50 [52] was 1.99 µM (inactive), the GI50 [53] was 1.98 µM (inactive) and the GI50 [54] was 3.02 µM (inactive). For the same compound, the GI50 [55] was 1.9 µM (inactive), the GI50 [56] was 2.1 µM (inactive) and the GI50 [57] was 3.53 µM (inactive). The GI50 [58] was 12.6 µM (inactive), the GI50 [59] was 2.42 µM (inactive) and the GI50 [60] was 1.81 µM (inactive). For the same compound, the GI50 [61] was 17.1 µM (inactive), the GI50 [62] was 2.96 µM (inactive) and the GI50 [63] was 5.75 µM (inactive). For the same compound, the GI50 [64] was 1.76 µM (inactive), the GI50 [65] was 14.3 µM (inactive) and the GI50 [66] was 1.66 µM (inactive). For the same compound, the GI50 [67] was 1.92 µM (inactive) and the GI50 [68] was 2.74 µM (inactive).

From ChEMBL document CHEMBL1201862, “PubChem BioAssay data set” (2004)
